The test system of assay [1] is HRE-bla ME-180 cells. Nature of the assay: Reporter gene assay (HRE-bla ME-180 HIF reporter, GeneBLAzer). The format is cell-based, human. The note with it: for EC50: 24 hour normoxia. The essentials:
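A FRET β-lactamase readout of HIF transcription was used. After compound treatment in 0.3% DMSO/media under normoxic conditions, 20 μl of 6× LiveBLAzer-FRET B/G (CCF4-AM) substrate was added. Plates sat 3 hr at room temperature in the dark and were read at 409 Ex/460Em and 409Ex/530Em on a Synergy 2. Inhibition was compared against DMSO vehicle controls, with chetomin as positive control.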
(In general: A reporter such as luciferase makes a cellular process visible.)

The target in assay [2] is T1, flag-tagged HIF1α (AA 786-826) / His6-tagged p300 (AA 323-423) complex (Homo sapiens, UniProt Q09472).
T1 construct: His6-tagged p300 (AA 323-423); made in house; host or cells: E. coli (pETDuet vector)
Briefly: HIF1α p300 displacement assay (TR FRET, +CHAPS). The format is binding. The note with it: read-out: IC50 (nM) (HIF1α_p300 Displacement + CHAPS). The gist of the method: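 In this TR-FRET displacement format, peptides compete HIF1α C-terminal transactivation domain off p300-CH. They were preincubated 1 h at room temperature with 300 nM complex in HEPES pH 7.4/NaCl buffer with 7.5 mM CHAPS and 1 mM DTT. Anti-His-D2 (4 nM) and anti-Flag-K (0.5 μM) followed for 2 h, and a one-site fit of the fluorescence ratio gave IC50.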

For assay [3], the system named is HRE-bla ME-180 cells. Briefly: Cell proliferation assay (viability, MTT, 1% FBS). The assay is classed as cell-based, human. The gist of the method:
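Viable cell number was measured with the CellTiter 96 (MTT) kit after compounds were applied for a 16 h normoxic (21% O2) pretreatment, followed by further normoxic or hypoxic (1% O2) culture. Cells: 2×10^4 ME-180 per well, Opti-MEM + 1% FBS, 0.5% DMSO vehicle.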

Bridge positions count the residues as written; N and C are the ends. Square brackets hold non-standard residues; d marks the D form. Peptide text beside a SMILES is read from it. R8 = C=CCCCCCC[C@@](C)(N)C(=O)O; S5 = C=CCCC[C@](C)(N)C(=O)O; Nle = CCCC[C@H](N)C(=O)O

One may read the EC50 as the midpoint of the concentration-response curve. One may read the IC50 as the concentration that inhibits the measured activity by half. For the compound `CCCC[C@H](NC(=O)[C@H](CC(C)C)NC(=O)[C@@H](NC(=O)[C@H](CCC(=O)O)NC(=O)[C@H](CCC(=O)O)NC(=O)[C@H](CC(=O)O)NC(=O)[C@@H](NC(=O)[C@H](CC(N)=O)NC(=O)[C@@H](NC(=O)[C@H](CCC(N)=O)NC(=O)[C@]1(C)CCCC=CCCC[C@](C)(NC(=O)[C@H](CC(C)C)NC(=O)[C@H](CCC(=O)O)NC(=O)[C@H](CCC(=O)O)NC(=O)CNC(=O)[C@H](CCC(N)=O)NC(=O)[C@H](CC(C)C)NC(=O)[C@H](CC(C)C)NC(C)=O)C(=O)N[C@@H](CCCNC(=N)N)C(=O)N[C@@H](C)C(=O)N[C@@H](CC(C)C)C(=O)N1)C(C)C)[C@@H](C)CC)C(C)C)C(=O)N[C@@]1(C)CCCC=CCCC[C@@](C)(C(=O)N[C@@H](CCCC)C(=O)NCC(N)=O)NC(=O)[C@H]([C@@H](C)CC)NC(=O)[C@H](C(C)C)NC(=O)[C@H](CC(C)C)NC1=O` [SP-308] (Ac-LLQGEEL[S5]RAL[S5]QVNIDEEVL[Nle][S5]LVI[S5][Nle]G-NH2; staple 8-12, 23-27), in assay [1], the “18 h Avg % max inhibition at top conc (HIF Rptr-24 hrs normoxia) (μM)” value (“18 h Avg % max inhibition at top conc” for short) was “++++ (≥50: ++++)” and the EC50 is 15 to 30 µM. The IC50 in assay [2] lay within 200 to 400 nM. In addition, the “Viability 1% FBS AVG (MTT V3-24 hr Normoxia) (μM)” value (“Viability 1% FBS AVG” for short) in assay [3] is “++++ (≥30: ++++)”.

Turning to `CC[C@H](C)[C@H](NC(=O)[C@H](Cc1ccccc1)NC(C)=O)C(=O)N[C@@H](CC(=O)O)C(=O)N[C@@H](CCC(=O)O)C(=O)N[C@]1(C)CCCCCCC=CCCC[C@@](C)(C(=O)N[C@@H](CCC(=O)O)C(=O)N[C@@H](CCSC)C(=O)N[C@@H](C)C(=O)N[C@@H](CC(C)C)C(=O)N[C@@H](CC(=O)O)C(N)=O)NC(=O)[C@H](C(C)C)NC(=O)[C@H](CC(C)C)NC(=O)[C@H](CO)NC(=O)[C@H](CCSC)NC(=O)[C@H](CC(C)C)NC(=O)[C@H](C(C)C)NC1=O` [SP-176] (Ac-FIDE[R8]VLMSLV[S5]EMALD-NH2; staple 5-12), in assay [1], the “18 h Avg % max inhibition at top conc” value is on record as “++++ (≥50: ++++)” and the EC50 is more than 30 µM. For the same compound, the IC50 in assay [2] was more than 700 nM. Moreover, the “Viability 1% FBS AVG” value in assay [3] is on record as “++++ (≥30: ++++)”.

For the compound `CCCC[C@H](NC(=O)[C@]1(C)CCCC=CCCC[C@](C)(NC(=O)[C@H](CCCC)NC(=O)[C@H](CC(C)C)NC(=O)[C@@H](NC(=O)[C@H](C)NC(=O)[C@H](CCC(=O)O)NC(=O)[C@H](CC(=O)O)NC(=O)[C@@H](NC(=O)[C@H](CC(N)=O)NC(=O)[C@@H](NC(=O)[C@]2(C)CCCC=CCCCCCC[C@@](C)(NC(=O)[C@H](CCC(=O)O)NC(=O)CNC(=O)[C@H](CCC(N)=O)NC(=O)[C@H](CC(C)C)NC(=O)[C@H](CC(C)C)NC(C)=O)C(=O)N[C@@H](CC(C)C)C(=O)N[C@@H](CC(C)C)C(=O)N[C@@H](CCCNC(=N)N)C(=O)N[C@@H](C)C(=O)N[C@@H](CC(C)C)C(=O)N[C@@H](CC(=O)O)C(=O)N2)C(C)C)[C@@H](C)CC)C(C)C)C(=O)N[C@@H](CC(C)C)C(=O)N[C@@H](C(C)C)C(=O)N[C@@H]([C@@H](C)CC)C(=O)N1)C(N)=O` [SP-347] (Ac-LLQGE[R8]LLRALD[S5]VNIDEAVL[Nle][S5]LVI[S5][Nle]-NH2; staple 6-13, 23-27), in assay [1], the “18 h Avg % max inhibition at top conc” value was “+++ (≤25 but <50: +++)” and the EC50 was more than 30 µM. Moreover, the IC50 in assay [2] fell in the range of 400 to 700 nM. The “Viability 1% FBS AVG” value in assay [3] is reported as “++++ (≥30: ++++)”.

`CCCC[C@H](NC(=O)[C@H](CC(C)C)NC(=O)[C@@H](NC(=O)[C@H](CCC(=O)O)NC(=O)[C@H](CCC(=O)O)NC(=O)[C@H](CC(=O)O)NC(=O)[C@@H](NC(=O)[C@H](CC(N)=O)NC(=O)[C@@H](NC(=O)[C@H](CCC(N)=O)NC(=O)[C@H](CC(=O)O)NC(=O)[C@]1(C)CCCC=CCCCCCC[C@@](C)(NC(=O)[C@H](CCC(N)=O)NC(=O)[C@H](CC(C)C)NC(=O)[C@H](CC(C)C)NC(C)=O)C(=O)N[C@@H](CCC(=O)O)C(=O)N[C@@H](CCC(=O)O)C(=O)N[C@@H](CC(C)C)C(=O)N[C@@H](CC(C)C)C(=O)N[C@@H](CCCNC(=N)N)C(=O)N[C@@H](C)C(=O)N1)C(C)C)[C@@H](C)CC)C(C)C)C(=O)N[C@@]1(C)CCCC=CCCC[C@@](C)(C(=O)N[C@@H](CCCC)C(=O)NCC(N)=O)NC(=O)[C@H]([C@@H](C)CC)NC(=O)[C@H](C(C)C)NC(=O)[C@H](CC(C)C)NC1=O` [SP-341] (Ac-LLQ[R8]EELLRA[S5]DQVNIDEEVL[Nle][S5]LVI[S5][Nle]G-NH2; staple 4-11, 23-27): in assay [1], the “18 h Avg % max inhibition at top conc” value was “+ (<10: +)” and the EC50 was more than 30 µM. In addition, the IC50 in assay [2] lay within 200 to 400 nM. Moreover, the “Viability 1% FBS AVG” value in assay [3] is recorded as “++++ (≥30: ++++)”.

Turning to `CCCC[C@H](NC(=O)[C@H](Cc1ccccc1)NC(=O)[C@@H](NC(=O)[C@H](C)NC(=O)[C@H](CCC(N)=O)NC(=O)[C@H](CC(=O)O)NC(=O)[C@@H](NC(=O)[C@H](Cc1ccccc1)NC(C)=O)[C@@H](C)CC)C(C)C)C(=O)N[C@@]1(C)CCCC=CCCC[C@@](C)(C(=O)N[C@@H](CCCC)C(=O)N[C@@H](C)C(=O)N[C@@H](CC(C)C)C(=O)N[C@@H](CC(C)C)C(N)=O)NC(=O)[C@H]([C@@H](C)CC)NC(=O)[C@H](C(C)C)NC(=O)[C@H](CO)NC1=O` [SP-252] (Ac-FIDQAVF[Nle][S5]SVI[S5][Nle]ALL-NH2; staple 9-13), in assay [1], the “18 h Avg % max inhibition at top conc” value is listed as “++++ (≥50: ++++)” and the EC50 was not above 5 µM. Moreover, the IC50 in assay [2] is more than 700 nM. In assay [3], the “Viability 1% FBS AVG” value was “++ (≤5 but <15: ++)”.

For `CCCC[C@H](NC(=O)[C@H](C)NC(=O)[C@]1(C)CCCC=CCCCCCC[C@@](C)(NC(=O)[C@H](CCC(=O)O)NC(=O)[C@H](CC(=O)O)NC(=O)[C@@H](NC(=O)[C@H](CC(N)=O)NC(=O)[C@@H](NC(=O)[C@H](CCC(N)=O)NC(=O)[C@]2(C)CCCC=CCCC[C@](C)(NC(=O)[C@H](CC(C)C)NC(=O)[C@H](CCC(=O)O)NC(=O)[C@H](CCC(=O)O)NC(=O)CNC(=O)[C@H](CCC(N)=O)NC(=O)[C@H](CC(C)C)NC(=O)[C@H](CC(C)C)NC(C)=O)C(=O)N[C@@H](CCCNC(=N)N)C(=O)N[C@@H](C)C(=O)N[C@@H](CC(C)C)C(=O)N2)C(C)C)[C@@H](C)CC)C(=O)N[C@@H](C(C)C)C(=O)N[C@@H](CC(C)C)C(=O)N[C@@H](CCCC)C(=O)N[C@@H](CO)C(=O)N[C@@H](CC(C)C)C(=O)N[C@@H](C(C)C)C(=O)N1)C(N)=O` [SP-363] (Ac-LLQGEEL[S5]RAL[S5]QVNIDE[R8]VL[Nle]SLV[S5]A[Nle]-NH2; staple 8-12, 19-26), in assay [1], the “18 h Avg % max inhibition at top conc” value is reported as “++ (≤10 but <25: ++)” and the EC50 is more than 30 µM. Besides, the IC50 in assay [2] was more than 700 nM. Moreover, the “Viability 1% FBS AVG” value in assay [3] is “++++ (≥30: ++++)”.

In the case of `CCCC[C@H](NC(=O)[C@H](Cc1ccccc1)NC(=O)[C@@H](NC(=O)[C@H](C)NC(=O)[C@H](CCC(N)=O)NC(=O)[C@H](CC(=O)O)NC(=O)[C@@H](NC(=O)[C@H](Cc1ccccc1)NC(C)=O)[C@@H](C)CC)C(C)C)C(=O)N[C@@]1(C)CCCC=CCCC[C@@](C)(C(=O)N[C@@H](CCCNC(=N)N)C(=O)N[C@@H](C)C(=O)N[C@@H](CC(C)C)C(=O)N[C@@H](CC(C)C)C(N)=O)NC(=O)[C@H]([C@@H](C)CC)NC(=O)[C@H](C(C)C)NC(=O)[C@H](CC(C)C)NC1=O` [SP-256] (Ac-FIDQAVF[Nle][S5]LVI[S5]RALL-NH2; staple 9-13), in assay [1], the “18 h Avg % max inhibition at top conc” value is “++++ (≥50: ++++)” and the EC50 is not above 5 µM. In addition, the IC50 in assay [2] was more than 700 nM. In addition, in assay [3], the “Viability 1% FBS AVG” value is recorded as “++ (≤5 but <15: ++)”.

`CCCC[C@H](NC(=O)[C@H](CC(C)C)NC(=O)[C@@H](NC(=O)[C@H](CCC(=O)O)NC(=O)[C@H](CCC(=O)O)NC(=O)[C@H](CC(=O)O)NC(=O)[C@@H](NC(=O)[C@H](Cc1ccccc1)NC(C)=O)[C@@H](C)CC)C(C)C)C(=O)N[C@@]1(C)CCCC=CCCC[C@@](C)(C(=O)N[C@@H](CCSC)C(=O)N[C@@H](C)C(=O)N[C@@H](CC(C)C)C(N)=O)NC(=O)[C@H]([C@@H](C)CC)NC(=O)[C@H](C(C)C)NC(=O)[C@H](CC(C)C)NC1=O` [SP-224] (Ac-FIDEEVL[Nle][S5]LVI[S5]MAL-NH2; staple 9-13): in assay [1], the “18 h Avg % max inhibition at top conc” value is listed as “++ (≤10 but <25: ++)” and the EC50 was more than 30 µM. For the same compound, the half-inhibitory concentration (IC50) in assay [2] was 400 to 700 nM. The “Viability 1% FBS AVG” value in assay [3] is listed as “++++ (≥30: ++++)”.
